For 20 compounds, T/C results are on record in PubChem BioAssay AID248 (DTP/NCI, 2004).

For the test, the system named is L1210 leukemia ip in BDF1 mice, survival T/C. Put plainly: NCI In Vivo Anticancer Drug Screen. Data for tumor model L1210 Leukemia (intraperitoneal) in B6D2F1 (BDF1) mice. Conditions: endpoint: mean survival time, higher = longer survival. An outline of the steps:
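Transplantable tumor model; survival measured in treated vs vehicle control mice. Value = treated/control.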

The mark [1] stands for this setting: dose: 100.0 mg/kg/injection, schedule: Q04DX003 (ip), vehicle: Klucel (hydroxypropylcellulose) (HPC).
Where [2] appears, read: dose: 200.0 mg/kg/injection, schedule: Q04DX003 (ip), vehicle: Klucel (hydroxypropylcellulose) (HPC).
Setting [3] is: dose: 400.0 mg/kg/injection, schedule: Q04DX003 (ip), vehicle: Klucel (hydroxypropylcellulose) (HPC).
Where [4] appears, read: dose: 100.0 mg/kg/injection, schedule: Q01DX009 (ip), vehicle: Klucel (hydroxypropylcellulose) (HPC).
[5] abbreviates: dose: 200.0 mg/kg/injection, schedule: Q01DX009 (ip), vehicle: Klucel (hydroxypropylcellulose) (HPC).
Where [6] appears, read: dose: 100.0 mg/kg/injection, schedule: Q04DX002 (ip), vehicle: Klucel (hydroxypropylcellulose) (HPC).
Setting [7] is: dose: 200.0 mg/kg/injection, schedule: Q04DX002 (ip), vehicle: Klucel (hydroxypropylcellulose) (HPC).
Where [8] appears, read: dose: 400.0 mg/kg/injection, schedule: Q04DX002 (ip), vehicle: Klucel (hydroxypropylcellulose) (HPC).

The structures appear in SMILES notation. “And” between values parts separate entries of the source, which are not always exact repeats. Equal entries are not always repeated. Inconclusive results and toxic doses are left out.

As to `C=CCC1(CC)C(=O)NC(=O)NC1=O`, the T/C was 102 % of control (dose: 50.0 mg/kg/injection, schedule: Q01DX009 (ip), vehicle: saline sonified); 110 % of control (dose: 100.0 mg/kg/injection, schedule: Q01DX009 (ip), vehicle: saline sonified); 94 % of control under setting [1]; 108 % of control (dose: 200.0 mg/kg/injection, schedule: Q01DX009 (ip), vehicle: saline sonified); 94 % of control under setting [2].
Consider `Nc1ccc(CCCCc2ccccc2)c(Cl)c1`, for which the T/C by setting is: (dose: 75.0 mg/kg/injection, schedule: Q01DX001 (ip), vehicle: saline) 90 % of control; (dose: 150.0 mg/kg/injection, schedule: Q01DX001 (ip), vehicle: saline) 96 % of control.
In the case of `Nc1cc(Cl)cc2cc(Br)cnc12`, the T/C by setting is: under setting [1], 101 % of control; under setting [2], 98 % of control; under setting [3], 95 % of control.
Regarding `O=C1c2ccccc2C(=O)c2cc(-c3ccccc3)ccc21`, the T/C is 90 % of control (dose: 100.0 mg/kg/injection, schedule: Q01DX001 (ip), vehicle: saline with Tween-80); 93 % of control (dose: 200.0 mg/kg/injection, schedule: Q01DX001 (ip), vehicle: saline with Tween-80); 87 % of control (dose: 400.0 mg/kg/injection, schedule: Q01DX001 (ip), vehicle: saline with Tween-80).
With `O=C1NCCCCN1`, the T/C is 100 % of control (dose: 100.0 mg/kg/injection, schedule: Q04DX003 (ip), vehicle: saline with Tween-80); 100 % of control (dose: 200.0 mg/kg/injection, schedule: Q04DX003 (ip), vehicle: saline with Tween-80); 101 % of control (dose: 400.0 mg/kg/injection, schedule: Q04DX003 (ip), vehicle: saline with Tween-80).
Take `Cc1cc(C)n(C(N)=O)n1`: the T/C is 109 % of control under setting [4]; 105 % of control and 104 % of control under setting [1]; 104 % of control under setting [5]; 97 % of control and 102 % of control under setting [2]; 110 % of control (dose: 400.0 mg/kg/injection, schedule: Q01DX009 (ip), vehicle: Klucel (hydroxypropylcellulose) (HPC)); 101 % of control and 104 % of control under setting [3].
For the compound `CNC(=O)c1ccc(NC(=O)Nc2ccc(C3=NCCCN3)cc2)cc1NC(=O)Nc1ccc(C2=NCCCN2)cc1`, the T/C reads like this: (dose: 11.5 mg/kg/injection, schedule: Q01DX Z (ip), vehicle: carboxymethylcellulose (CMC)) 108 % of control; (dose: 23.0 mg/kg/injection, schedule: Q01DX Z (ip), vehicle: carboxymethylcellulose (CMC)) 107 % of control; (dose: 46.0 mg/kg/injection, schedule: Q01DX Z (ip), vehicle: carboxymethylcellulose (CMC)) 166 % of control; (dose: 62.0 mg/kg/injection, schedule: Q01DX Z (oral), vehicle: carboxymethylcellulose (CMC)) 111 % of control; (dose: 92.0 mg/kg/injection, schedule: Q01DX Z (ip), vehicle: carboxymethylcellulose (CMC)) 177 % of control; (dose: 125.0 mg/kg/injection, schedule: Q01DX Z (oral), vehicle: carboxymethylcellulose (CMC)) 109 % of control. The T/C (dose: 250.0 mg/kg/injection, schedule: Q01DX Z (oral), vehicle: carboxymethylcellulose (CMC)) was 108 % of control and the T/C (dose: 500.0 mg/kg/injection, schedule: Q01DX Z (oral), vehicle: carboxymethylcellulose (CMC)) is 108 % of control.
Consider `Cc1ccc(NCC(=O)NN)cc1`, for which the T/C reads like this: under setting [6], 104 % of control; under setting [7], 107 % of control.
`Cc1ccc(Cl)cc1NC(=O)Oc1cc(C)c(Cl)c(C)c1`: the T/C is 94 % of control under setting [4] and 96 % of control under setting [5].
Take `N#C/C(=C\c1ccncc1)c1ccccc1Cl`: the T/C by setting is: (dose: 100.0 mg/kg/injection, schedule: Q01DX001 (ip), vehicle: other) 91 % of control; (dose: 200.0 mg/kg/injection, schedule: Q01DX001 (ip), vehicle: other) 89 % of control; (dose: 400.0 mg/kg/injection, schedule: Q01DX001 (ip), vehicle: other) 96 % of control.
Consider `O=c1[nH]c2ccc(Br)cc2cc1Br`, for which the T/C is 97 % of control (dose: 100.0 mg/kg/injection, schedule: Q01DX001 (ip), vehicle: saline); 97 % of control (dose: 200.0 mg/kg/injection, schedule: Q01DX001 (ip), vehicle: saline); 97 % of control (dose: 400.0 mg/kg/injection, schedule: Q01DX001 (ip), vehicle: saline).
Take `COc1ccc(C2=CC=C(c3ccccc3)C2)cc1N`: the T/C was 90 % of control (dose: 100.0 mg/kg/injection, schedule: Q01DX001 (ip), vehicle: Klucel (hydroxypropylcellulose) (HPC)); 95 % of control (dose: 200.0 mg/kg/injection, schedule: Q01DX001 (ip), vehicle: Klucel (hydroxypropylcellulose) (HPC)); 90 % of control (dose: 400.0 mg/kg/injection, schedule: Q01DX001 (ip), vehicle: Klucel (hydroxypropylcellulose) (HPC)).
In the case of `CN(C)c1ccc2nc3ccc(=O)cc-3sc2c1`, the T/C was 88 % of control (dose: 50.0 mg/kg/injection, schedule: Q04DX002 (ip), vehicle: Klucel (hydroxypropylcellulose) (HPC)); 95 % of control under setting [6]; 92 % of control under setting [7]; 95 % of control under setting [8].
Take `C/C(=C\CC1(C)C(=O)CCC2(C)C1CCCC21OCCO1)Sc1ccc(Cl)cc1` (stereo unspecified): the T/C runs as follows: under setting [6], 89 % of control; under setting [7], 95 % of control; under setting [8], 110 % of control.
Take `O=C1NCC2(O1)c1ccccc1-c1ccccc12`: the T/C (dose: 25.6 mg/kg/injection, schedule: Q04DX002 (ip), vehicle: saline with Tween-80) was 92 % of control; the T/C (dose: 64.0 mg/kg/injection, schedule: Q04DX002 (ip), vehicle: saline with Tween-80) is 98 % of control; the T/C (dose: 160.0 mg/kg/injection, schedule: Q04DX002 (ip), vehicle: saline with Tween-80) was 113 % of control.
Take `C[n+]1c2c(cc3ccccc31)CCC2`: the T/C (dose: 12.5 mg/kg/injection, schedule: Q01DX009 (ip), vehicle: saline with Tween-80) was 87 % of control; the T/C (dose: 25.0 mg/kg/injection, schedule: Q01DX009 (ip), vehicle: saline with Tween-80) is 97 % of control; the T/C (dose: 50.0 mg/kg/injection, schedule: Q01DX009 (ip), vehicle: saline with Tween-80) was 108 % of control and 90 % of control.
As to `O=C1NC2C3CC(c4ccccc43)C12` (stereo unspecified), the T/C under setting [6] is 101 % of control, the T/C under setting [7] was 108 % of control and the T/C under setting [8] is 111 % of control.
On to `Cc1ccc2nc(/C=C/c3ccc(N(C)C)cc3)cc(C)c2c1`, for which the T/C is 89 % of control (dose: 25.0 mg/kg/injection, schedule: Q01DX Z (ip), vehicle: carboxymethylcellulose (CMC)); 96 % of control (dose: 100.0 mg/kg/injection, schedule: Q01DX Z (ip), vehicle: carboxymethylcellulose (CMC)); 100 % of control (dose: 200.0 mg/kg/injection, schedule: Q01DX Z (ip), vehicle: carboxymethylcellulose (CMC)).
Consider `COc1ccc(NC(=O)Nc2ccc(C)c(Cl)c2)cc1`, for which the T/C (dose: 100.0 mg/kg/injection, schedule: Q01DX009 (sc), vehicle: olive oil, sesame oil, peanut oil) was 96 % of control; the T/C (dose: 100.0 mg/kg/injection, schedule: Q04DX003 (sc), vehicle: olive oil, sesame oil, peanut oil) is 99 % of control; the T/C (dose: 200.0 mg/kg/injection, schedule: Q01DX009 (sc), vehicle: olive oil, sesame oil, peanut oil) was 107 % of control; the T/C (dose: 200.0 mg/kg/injection, schedule: Q04DX003 (sc), vehicle: olive oil, sesame oil, peanut oil) was 93 % of control; the T/C (dose: 400.0 mg/kg/injection, schedule: Q01DX009 (sc), vehicle: olive oil, sesame oil, peanut oil) is 94 % of control; the T/C (dose: 400.0 mg/kg/injection, schedule: Q04DX003 (sc), vehicle: olive oil, sesame oil, peanut oil) was 97 % of control.
For `c1cc[c]([Ge]([CH2][CH2][Sn]([c]2ccccc2)([c]2ccccc2)[c]2ccccc2)([CH2][CH2][Sn]([c]2ccccc2)([c]2ccccc2)[c]2ccccc2)[c]2ccccc2)cc1`, the T/C (dose: 100.0 mg/kg/injection, schedule: Q04DX002 (ip), vehicle: saline with Tween-80) is 98 % of control; the T/C (dose: 200.0 mg/kg/injection, schedule: Q04DX002 (ip), vehicle: saline with Tween-80) was 102 % of control; the T/C (dose: 400.0 mg/kg/injection, schedule: Q04DX002 (ip), vehicle: saline with Tween-80) is 94 % of control.
